Test results: paper PMC6445123 (Scientific Reports, 2019)

Target: T1, Casp6-K284A-LS-SS (Homo sapiens, UniProt P55212, K284A)
T1 construct: obtained by co-expression and purification of LS and SS subunits of WT, L200A or K284A Casp6 from E. coli; His (C); made in house; host or cells: E. coli BL21(DE3)pLysS
T1 sequence (P55212 24-179 limits assumed): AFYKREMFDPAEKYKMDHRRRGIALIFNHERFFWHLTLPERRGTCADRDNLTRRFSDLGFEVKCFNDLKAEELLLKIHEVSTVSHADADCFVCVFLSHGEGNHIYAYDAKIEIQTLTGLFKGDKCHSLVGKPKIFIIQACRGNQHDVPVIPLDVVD
T1 sequence (P55212 194-293 K284A limits assumed): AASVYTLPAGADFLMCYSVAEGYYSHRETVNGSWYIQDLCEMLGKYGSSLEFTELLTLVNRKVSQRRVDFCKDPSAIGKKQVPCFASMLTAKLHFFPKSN
Assay: C13 dose-response and global-fit kinetics on Casp6-K284A-LS-SS
Format: biochemical
Description: Figure 4 Compounds S10G and C13 inhibit Casp6 through a noncompetitive mode of inhibition. (a) Michaelis-Menten kinetic plots of Casp6 enzymatic activity in presence of 1% DMSO or increasing doses S10G (top) and C13 (bottom). Data points represent mean ± SD of three independent experiments. (b) Lineweaver-Burk plots of Casp6 inhibition with S10G (top) and C13 (bottom). Red circle indicates the point where lines converge. (c) The relationship between the slopes of lines in Lineweaver-Burk plot analyses in panel (b) and inhibitor concentration. (d) Plots of IC50 values for S10G (top) and C13 (bottom) with varying concentrations of Ac-VEID-AFC substrate. Data points represent mean ± SD from three independent experiments for each substrate concentration. (e) Binding model of C13 into CASP6 putative allosteric site, derived from molecular docking. Left: C13 (green sticks) occupies the putative allosteric site (white surface and lines; Ala-mutated residues L200 and K284 shown as purple sticks). Right: predicted interactions with Casp6 allosteric pocket residues (pink balls polar, circled blue or red for basic and acidic, respectively. Green balls = hydrophobic. Dotted-arrow: blue and green for backbone and sidechain hydrogen-bond interactions, respectively. Blue shade = solvent exposed area). Dose-response curves of C13 for Casp6-WT and Casp6-K284A (f), and copurified LS and SS of Casp6-WT-LS-SS, Casp6-L200A-LS-SS, and Casp6-K284A-LS-SS (g). Data represent mean ± SD from at least three independent experiments. (h) Global fit of kinetics data to a noncompetitive (mixed) inhibition model for Casp6-WT-LS-SS (left panel, R^2 = 0.9635), Casp6-L200A-LS-SS (middle panel, R^2 = 0.9699), and Casp6-K284A-LS-SS (right panel, R^2 = 0.9794) in the presence of 0–50 µM C13. Data points on the graph represent the mean ± SD, and calculated Ki values represent mean ± standard error (SE) from three independent experiments.
To determine the importance of C13 interactions with L200 and K284 for C13 binding in the Casp6 allosteric pocket, we have generated Casp6-L200A and Casp6-K284A mutants and investigated inhibition with C13. In contrast to Casp6-WT, purified Casp6-L200A and Casp6-K284A underwent poor self-processing when overexpressed in E. coli from a construct encoding a full-length Casp6 (Fig. S5). Casp6-L200A partially self-processed at the TETD23 site generating full-length Casp6 and Casp6 without a prodomain (ΔCasp6). Casp6-K284A underwent complete processing at the TETD23 site but, in contrast to Casp6-WT, it only partially self-cleaved at the TEVD193 site generating ΔCasp6, LS-L and SS fragments (Fig. S5). […] Fully processed forms of Casp6-WT-LS-SS, Casp6-L200A-LS-SS, and Casp6-K284A-LS-SS were obtained by co-expression and purification of LS and SS subunits of WT, L200A or K284A Casp6 from E. coli (Fig. S5). […]
Compounds, S10G (2.5 µM, 4.2 µM, 10 µM), and C13 (5 µM, 14 µM, 50 µM), were added to 20 nM active site titrated Casp6 and enzyme activity was measured with eight different Ac-VEID-AFC substrate concentrations (5.0 μM–200 μM) using fluorescence-based Casp6 activity assay as above. The apparent KM and Vmax values were determined through nonlinear regression analysis of Michaelis-Menten plots (v vs. [S]) using GraphPad Prism 5. The inhibition mode was determined from the pattern of converging Lineweaver-Burk plots (1/v vs. 1/[S])[54]. […]

- fold higher IC50 for Casp6-K284A-LS-SS compared to Casp6-WT-LS-SS: 1.5 fold
- fold higher Ki for Casp6-K284A-LS-SS compared to Casp6-WT-LS-SS: 1.6 fold
- inhibition model (best global fit), Casp6-K284A-LS-SS (Ac-VEID-AFC hydrolysis, increasing substrate and C13 concentrations): noncompetitive (mixed) model inhibition
- IC50 (copurified LS and SS, read-out: IC50 of C13 for Casp6-K284A-LS-SS (Fig. 4g)): 47.8 ± 6 µM
- Ki (global fit to noncompetitive (mixed) model, 0–50 µM C13, mean ± SE): 11.8 µM
Structure (SMILES): COC(=O)c1cc(CNC(=O)C2Cc3ccccc3O2)cc(NC(=O)c2ccco2)c1 (centres unmarked) [Compound C13]
